This is an account of results in US10016382B2, “Method for decreasing skeletal muscle damage and/or oxidative stress in mammals” (LONZA INC., priority 2014, dated 2018).

The test has as its system Labrador Retrievers. The test can be described thus: Time of final 15 mile endurance run, Example 1 (90 day study). The class given is in vivo, dog. The conditions noted are these: Ex.1, 250 mg/d; for Final run time: 15 mile run at end of 90 day study, mean ± SEM. As for the experimental part: Forty Labrador Retrievers were divided into two equal groups of twenty (11 males, 9 females) based on gender, body weight (“BW”), genetics, and lean mass and fed a low L-carnitine basal diet for a 90 day feeding period. The experimental dogs were fed the low L-carnitine basal for 10 days prior to the start of the study. Twenty of the Labs received 250 mg/day of L-carnitine (batch D22312) and 3.75 g of sugar and twenty of the Labs received 4 g/d of sugar. The dogs were scanned with a GE Prodigy DEXA system immediately prior to beginning of the study and the determined lean mass was utilized as a key component for helping assort the dogs equally between the control and L-carnitine group. A serum sample was obtained from each dog to determine a baseline value for blood biomarkers that were used to evaluate muscle damage and antioxidant status. The L-carnitine and control performance dogs were put through a weekly running program consisting of running sprint type shorter runs of higher intensity twice weekly (1200 yds/session increasing to 2400 yds/session over 10 wk period) and running endurance longer runs one time per wk (increasing from 5 miles/session to 10 miles per session over a 10 wk period). Each performance dog also wore the Actical activity monitor during the last endurance run. The dogs were put through a 15 mile run that included mud, water, tall grass, and swimming. The dogs were timed when they completed the course. The dogs were encouraged by kennel staff that rode along in a 4 wheel all terrain type vehicle during all of the endurance runs. […] Immediately following the 15 mile endurance run, each dog was placed in a kennel and evaluated for recovery time for body temperature (every 15 minutes for 2 hr) and heart rate (every 2 minutes for 14 minutes). Twenty four hours after test dogs ran the last 15 endurance run, post-run serum samples were taken to evaluate biomarkers for muscle damage and antioxidant status. Each test dog was also scanned with the GE Prodigy DEXA to determine body composition change that occurred during the course of the 13 wk study. Experimental Design: Forty Labrador Retrievers (labs) ranging in age from 1 to 3.5 years were incorporated into a two dietary treatment study. The two dietary treatments were based on feeding the test dogs the same low L-carnitine diet but adding 250 mg per day of L-carnitine to the L-carnitine group. Each of the L-carnitine dogs received the daily 250 mg of L-carnitine mixed with an additional 3.75 g sugar. The control dogs received 4 g of sugar each day. Twenty labs of equal gender, age, excitement level, frame size, body weight and genetic background were utilized for each of the two treatments. The labs utilized for the nutrition study were from a minimum of 6 different bitches. The lean body mass of the 40 test dogs was determined by scanning with the DEXA and the final key component utilized to assure equal groups. Prior to the start of the study, the labs were acclimated to the experimental diets for a minimum of 10 days. The labs were weighed at the beginning of the 90 day study and weighed every two weeks throughout the study. Feed consumption was determined daily by weighing feed provided and feed refusals. The quantity of food provided each dog on a daily basis was adjusted based on maintaining a minimum initial starting body weight throughout the study. […]

Several values for one entry are separate records, joined by “and”; a condition that tells them apart may be missing. Equal values may be shown once.

As for `C[N+](C)(C)C[C@H](O)CC(=O)[O-]` [L-carnitine], the Final run time by setting is: (both sexes) 95.84 min and 95.84 ± 1.417^A n = 19 min; (females) 98.50 ± 3.179 n = 8 min; (males) 93.91 ± 0.4564^A n = 11 min. Further, the “15-mile timed run, minutes faster than control” value (both sexes vs control dogs) stood at 6.56 min and the “15-mile timed run, minutes faster than control” value (males vs control males) turned out to be 8.69 min.
